Data from BindingDB's records for doi:10.1016/s0014-2999(99)00610-x (Hungarian Academy of Sciences, 1999).
Several values for one entry are separate records, joined by “and”; a condition that tells them apart may be missing. Identical values can stand only once. Where a SMILES comes first, the peptide text is derived from it. [ ]: non-standard residue; d: D form. Tic = O=C(O)[C@@H]1Cc2ccccc2CN1

Key:
[1] = molecular target: Delta-type opioid receptor (Sus scrofa, UniProt P79291)
[2] = molecular target: Delta-type opioid receptor (Rattus norvegicus, UniProt P33533)
Sequence of Delta-type opioid receptor (Rattus norvegicus, UniProt P33533) (P33533 whole entry): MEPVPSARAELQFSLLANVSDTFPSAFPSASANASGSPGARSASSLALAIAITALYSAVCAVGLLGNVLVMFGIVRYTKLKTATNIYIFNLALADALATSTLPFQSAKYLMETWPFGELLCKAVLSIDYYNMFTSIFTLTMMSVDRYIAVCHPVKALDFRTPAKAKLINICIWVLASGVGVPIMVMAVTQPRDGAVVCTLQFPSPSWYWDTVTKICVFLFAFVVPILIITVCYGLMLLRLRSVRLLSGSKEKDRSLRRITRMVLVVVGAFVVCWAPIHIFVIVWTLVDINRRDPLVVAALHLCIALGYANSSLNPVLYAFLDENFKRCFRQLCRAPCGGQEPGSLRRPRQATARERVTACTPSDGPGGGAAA

Mu-type opioid receptor [3] = molecular target: Mu-type opioid receptor (Rattus norvegicus, UniProt P33535)
Sequence of Mu-type opioid receptor (Rattus norvegicus, UniProt P33535) (P33535 whole entry): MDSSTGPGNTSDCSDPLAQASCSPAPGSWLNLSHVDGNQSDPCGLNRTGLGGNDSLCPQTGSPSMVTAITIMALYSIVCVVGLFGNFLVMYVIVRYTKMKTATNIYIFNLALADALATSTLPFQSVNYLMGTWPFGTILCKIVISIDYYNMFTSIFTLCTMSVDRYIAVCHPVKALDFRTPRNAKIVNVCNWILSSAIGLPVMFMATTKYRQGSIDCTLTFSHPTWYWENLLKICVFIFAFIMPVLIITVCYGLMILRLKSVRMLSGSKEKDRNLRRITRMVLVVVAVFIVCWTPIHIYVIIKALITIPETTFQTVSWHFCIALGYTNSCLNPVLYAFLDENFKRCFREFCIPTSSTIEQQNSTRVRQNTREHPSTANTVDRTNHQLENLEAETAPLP

[4] = molecular target: Kappa-type opioid receptor (Rattus norvegicus, UniProt P34975)
Sequence of Kappa-type opioid receptor (Rattus norvegicus, UniProt P34975) (P34975 whole entry): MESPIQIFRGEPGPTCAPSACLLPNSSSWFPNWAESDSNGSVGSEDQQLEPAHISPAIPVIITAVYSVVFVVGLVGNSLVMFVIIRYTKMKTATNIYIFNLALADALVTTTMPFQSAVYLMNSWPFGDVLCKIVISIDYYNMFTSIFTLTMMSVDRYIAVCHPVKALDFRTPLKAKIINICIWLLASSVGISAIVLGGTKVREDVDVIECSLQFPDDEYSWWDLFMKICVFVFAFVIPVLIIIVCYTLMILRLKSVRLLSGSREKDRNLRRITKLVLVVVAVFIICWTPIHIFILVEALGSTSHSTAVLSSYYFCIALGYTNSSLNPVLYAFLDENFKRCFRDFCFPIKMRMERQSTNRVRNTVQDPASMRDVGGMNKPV

Mu-type opioid receptor [5] = molecular target: Mu-type opioid receptor (Cavia porcellus, UniProt P97266)
Sequence of Mu-type opioid receptor (Cavia porcellus, UniProt P97266) (P97266 whole entry): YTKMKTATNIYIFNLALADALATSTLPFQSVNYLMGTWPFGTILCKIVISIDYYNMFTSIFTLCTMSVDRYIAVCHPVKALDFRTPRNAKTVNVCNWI

[6] = molecular target: Kappa-type opioid receptor (Cavia porcellus, UniProt P41144)
Sequence of Kappa-type opioid receptor (Cavia porcellus, UniProt P41144) (P41144 whole entry): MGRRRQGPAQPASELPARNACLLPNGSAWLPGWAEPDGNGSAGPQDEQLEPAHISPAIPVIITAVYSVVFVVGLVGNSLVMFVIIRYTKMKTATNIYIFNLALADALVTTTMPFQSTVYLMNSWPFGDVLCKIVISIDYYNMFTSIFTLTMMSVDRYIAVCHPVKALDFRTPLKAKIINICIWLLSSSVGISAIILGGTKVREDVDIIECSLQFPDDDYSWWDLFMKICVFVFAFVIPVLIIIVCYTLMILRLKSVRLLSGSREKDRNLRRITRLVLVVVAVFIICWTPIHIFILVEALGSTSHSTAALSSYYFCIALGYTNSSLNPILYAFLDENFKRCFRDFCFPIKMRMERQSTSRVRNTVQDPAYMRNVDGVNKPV

Sequence of Delta-type opioid receptor (Sus scrofa, UniProt P79291) (P79291 whole entry): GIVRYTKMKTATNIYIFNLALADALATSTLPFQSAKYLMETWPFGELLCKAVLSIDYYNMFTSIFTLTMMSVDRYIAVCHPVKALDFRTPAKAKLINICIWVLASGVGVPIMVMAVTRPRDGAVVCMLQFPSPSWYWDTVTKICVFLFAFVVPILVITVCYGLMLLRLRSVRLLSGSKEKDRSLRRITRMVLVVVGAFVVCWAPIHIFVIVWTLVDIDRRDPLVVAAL

Row | SMILES | Ki [1] [nM] | Ki [2] [nM] | Ki (Mu-type opioid receptor [5]) [nM] | further results
1 | CC(C)C[C@H](NC(=O)[C@H](Cc1ccccc1)NC(=O)CNC(=O)[C@@H](CO)NC(=O)[C@@H](N)Cc1ccc(O)cc1)C(=O)N[C@H](C(=O)O)[C@@H](C)O [DSLET-OH] | 6.3 | 9.8 | – | –
2 | CC(C)[C@H](NC(=O)[C@H](CCC(=O)O)NC(=O)[C@H](Cc1ccccc1)NC(=O)[C@@H](C)NC(=O)[C@@H](N)Cc1ccc(O)cc1)C(=O)N[C@H](C(=O)NCC(N)=O)C(C)C [Tyr-D-Ala-Phe-Glu-Val-Val-GlyNH2] | 2880 | 1190 | – | –
3 | N[C@@H](Cc1ccc(O)cc1)C(=O)N1Cc2ccccc2C[C@H]1C(=O)N[C@@H](Cc1ccccc1)C(=O)N[C@@H](Cc1ccccc1)C(=O)O [TIPP] (H-Y[Tic]FF-OH) | 7060 | 2830 | – | –
4 | COc1cccc2c1[C@]13CCN(CC4CC4)C(C2)[C@]1(OC)CCC(=O)C3 | – | – | 26.6 | Ki (Mu-type opioid receptor [3]): 8.1 nM and 5.4 nM; Ki [4]: 2190 nM
5 | C[C@@H](NC(=O)[C@@H](N)Cc1ccc(O)cc1)C(=O)NCC(=O)N(C)[C@@H](Cc1ccccc1)C(=O)NCCO [[tyrosyl-3,5-3H(N)]-D-Ala2-Mephe4-glyol5-enkephalin] | – | – | 2.6 | –
6 | CN1CC[C@]23c4c5ccc(O)c4O[C@H]2[C@@H](O)CCC3[C@H]1C5 (stereo not given in full) [DIHYDROMORPHINE] | – | – | 6 | –
7 | C[C@@H](O)[C@H](NC(=O)[C@H]1NC(=O)[C@H]([C@@H](C)O)NC(=O)[C@H](CCCN=C(N)N)NC(=O)[C@@H](Cc2c[nH]c3ccccc23)NC(=O)[C@H](Cc2ccc(O)cc2)NC(=O)[C@@H](NC(=O)[C@H](N)Cc2ccccc2)CSSC1(C)C)C(N)=O | – | – | 48.1 | Ki (Mu-type opioid receptor [3]): 43.8 nM
8 | Oc1ccc2c3c1OC1c4[nH]c5c(c4CC4(O)CN(CCC314)C(C1CC1)C2)CC1(O)CN2CCC13c1c(ccc(O)c1OC53)CC2C1CC1 (stereo not given) [CAS_105618-26-6] | – | – | – | Ki [4]: 172 nM; Ki [6]: 770 nM
